Data on 8 molecules can be found in PubChem BioAssay (NCI).

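How tested: cells in 96-well plates exposed to compound for 48 hours at five concentrations. Here, GI50 denotes the concentration required for 50% inhibition of growth. TGI: concentration producing complete growth inhibition.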

Common to all, as to assay: growth of human tumour cells (NCI), 48 h
Assay [1] concerns UO-31 renal.
Assay [2] relates to 786-0 renal.
For assay [3], the system named is SNB-19 CNS.
For assay [4], the system named is MALME-3M melanoma.
The test system of assay [5] is NCI/ADR-RES ovarian.
The subject of assay [6] is HL-60(TB) leukemia.
The subject of assay [7] is MCF7 breast.
The subject of assay [8] is K-562 leukemia.
The subject of assay [9] is NCI-H522 lung.
The test system of assay [10] is CCRF-CEM leukemia.

As for `COC(=O)C1c2cc3c(c(O)c2CCC1(C)O)C(=O)c1c(O)cc2c(c1C3=O)OC1OC2(C)C(O)C(N(C)C)C1O` (configuration not stated), the TGI in [1] worked out at 4.62 µM; in [2], 2.63 µM; in assay [3] it was 1.39 µM; in [4] it was 1.17 µM; in assay [5] it was 3.54 µM; in [6] it was 2.8 µM. In addition, the TGI in assay [7] came to 2.5 µM; in assay [8], 1.03 µM; in assay [9], 2.81 µM.
As to `CCOC(=O)C#Cc1cccc(C#CC(=O)OCC)c1`, the TGI in [1] worked out at 10.1 µM; in assay [2], 8.85 µM; in assay [3], 11.4 µM; in assay [4], 12.1 µM; in assay [5], 14.6 µM; in assay [6], 4.06 µM. The results for the TGI in [7], in assay [9] and in assay [10] were 15.6 µM, 30.9 µM and 6.34 µM, respectively.
With `O=C1NC(c2ccc3ccccc3c2)Nc2ccccc21` (configuration not stated), the TGI in assay [1], in assay [2], in [3], in assay [5], in assay [6] and in assay [7] was above 100 µM in each case. For the same molecule, the TGI in assay [8] was 7.04 µM; in assay [10], above 100 µM.
As to `CC(C)C[C@H](NC(=O)[C@@H](Cc1ccccc1)n1ccc(Nc2ccccc2)cc1=O)B(O)O`, the GI50 in assay [1] was 0.561 µM; in [2], 0.582 µM; in assay [3] it was 0.714 µM; in assay [4] it was 0.382 µM; in [5] it was 13.4 µM; in assay [7], 0.374 µM. Moreover, the GI50 in assay [8] was 0.477 µM; in assay [9], 0.242 µM; in [10] it was 0.34 µM. The TGI in [1] was 3.13 µM; in assay [2], 59 µM; in assay [3] it was above 100 µM; in assay [4] it was 2.48 µM; in assay [5], above 100 µM; in assay [7], 14.6 µM. The TGI in [8] was above 100 µM; in assay [9], 0.821 µM; in assay [10], 5.98 µM.
Turning to `COc1cccc(C(=O)NNc2nc(Cl)nc(N3CCN(C(c4ccccc4)c4ccccc4)CC3)n2)c1`, the GI50 is 3.14 µM in assay [1]; 3.4 µM in assay [2]; 1.88 µM in assay [3]; 1.7 µM in [4]; 2.18 µM in [5]; 6.29 µM in assay [6]. The values for the GI50 in assay [7] and in [10] were 82.2 µM and 2.23 µM, respectively. Moreover, the TGI in assay [1] was found to be 22 µM; in assay [2], 13.1 µM; in assay [3], 3.98 µM; in [4] it was 3.78 µM; in [5] it was 5.05 µM; in [6], 43.9 µM. For the same molecule, the TGI is above 100 µM in assay [7] and 30.4 µM in assay [10].
Take `CO/N=C(/C)COc1ccc2c(c1)oc(=O)c1cc(OC)ccc12`: the GI50 in assay [1] is 73.8 µM; in assay [2], above 100 µM; in assay [3], above 100 µM; in assay [4], above 100 µM; in assay [5], above 100 µM; in assay [7], above 100 µM. For the same molecule, the GI50 in assay [8], in assay [9] and in assay [10] was above 100 µM throughout. The TGI in [1], in assay [2], in [3], in assay [4], in assay [5] and in assay [7] was above 100 µM throughout. The TGI in assay [8], in [9] and in assay [10] was above 100 µM throughout.
Consider `COc1ccc2nc3cc([N+](=O)[O-])ccc3c(NCCO)c2c1`, for which the GI50 is 4.75 µM in [1]; 2.5 µM in assay [2]; 2.96 µM in [3]; 10 µM in assay [5]; 3.03 µM in [6]; 1.11 µM in [7]. The results for the GI50 in assay [8], in assay [9] and in assay [10] were 1.22 µM, 1.39 µM and 2.17 µM, respectively. In addition, the TGI in assay [1] was determined as 19 µM; in assay [2], 11.4 µM; in assay [3], 11.5 µM; in assay [7] it was 4.17 µM; in [8], 3.85 µM; in assay [9], 2.84 µM. Also, the TGI in assay [10] was 13.4 µM.
`CSC1=CC(=O)c2ccccc2C1=O`: the GI50 was 1.4 µM in assay [1]; 4.06 µM in assay [2]; 13.8 µM in [3]; 1.92 µM in [4]; 2.81 µM in assay [5]; 1.87 µM in assay [6]. Besides, the figures for the GI50 in assay [7], in [9] and in assay [10] were 1.72 µM, 2.02 µM and 0.296 µM, respectively. The TGI in assay [1] was determined as 2.84 µM; in assay [2] it was 14.1 µM; in assay [3], 29.4 µM; in assay [4], 3.54 µM; in assay [5] it was 11.7 µM; in [6], 4.33 µM. Also, the TGI is 3.65 µM in assay [7], 4.16 µM in [9] and 1.44 µM in assay [10].
